# Test results as given in patent US8785499B2 (priority 2009, dated 2014).
# Tests used:
# [1] = biological target: ecNadD (Escherichia coli (strain K12), UniProt P0A752); experiment: biochemical; type: biochemical; settings: for IC50: IC50 ecNadD; for inhibition at 100 µM: read-out: INHIBITION (%) E. coli
# [2] = biological target: baNadD (Bacillus anthracis, UniProt C3L5T6); experiment: biochemical; type: biochemical; settings: for IC50: IC50 baNadD; for inhibition at 50 µM: read-out: INHIBITION (%) B. anthracis
# baNadD, sequence (C3L5T6 whole entry, looked up): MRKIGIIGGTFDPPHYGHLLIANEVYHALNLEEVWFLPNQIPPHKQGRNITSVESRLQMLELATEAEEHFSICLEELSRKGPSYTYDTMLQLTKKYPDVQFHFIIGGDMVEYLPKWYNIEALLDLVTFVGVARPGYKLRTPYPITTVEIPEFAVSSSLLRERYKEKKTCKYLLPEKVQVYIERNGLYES
Structure (SMILES),IC50 [1],inhibition at 100 µM [1],IC50 [2],inhibition at 50 µM [2],INHIBITION (%) E. coli [1],INHIBITION (%) B. anthracis [2]
Nc1c(C(=O)Nc2cc(Cl)cc(Cl)c2)sc2nc(-c3cccs3)ccc12 [03_03],64 µM,93%,21 µM,90%,–,–
Nc1c(C(=O)Nc2ccc(Cl)cc2Cl)sc2nc(-c3ccncc3)ccc12 [03_04],21 µM,84%,21 µM,79%,–,–
Nc1c(C(=O)Nc2ccc(F)cc2)sc2nc(-c3ccncc3)ccc12 [03_06],> 200 µM,80%,> 200 µM,40%,–,–
Nc1c(C(=O)Nc2ccc(F)cc2F)sc2nc(-c3cccs3)ccc12 [03_07],44 µM,69%,18 µM,83%,–,–
Nc1c(C(=O)Nc2ccc(Cl)cc2)sc2nc(-c3ccc(F)cc3)ccc12 [03_08],> 200 µM,68%,> 200 µM,28%,–,–
Nc1c(C(=O)Nc2ccc(Cl)c(Cl)c2)sc2nc(-c3cccs3)ccc12 [03_09],–,60%,–,63%,–,–
Nc1c(C(=O)Nc2cccc(F)c2)sc2nc(-c3ccc(F)cc3)ccc12 [03_10],–,56%,–,60%,–,–
Nc1c(C(=O)Nc2ccc(Cl)cc2Cl)sc2nc(-c3cccs3)ccc12 [03_11],30 µM,54%,13 µM,90%,–,–
Nc1c(C(=O)Nc2cccc(Cl)c2)sc2nc(-c3cccs3)ccc12 [03_12],71 µM,53%,15 µM,89%,–,–
Nc1c(C(=O)Nc2ccc(F)c(Cl)c2)sc2nc(-c3ccc(F)cc3)ccc12 [03_13],–,52%,–,26%,–,–
Nc1c(C(=O)Nc2ccc(F)c(F)c2)sc2nc(-c3cccs3)ccc12 [03_14],117 µM,46%,38 µM,92%,–,–
Nc1c(C(=O)Nc2cccc(Cl)c2)sc2nc(-c3ccc(F)cc3)ccc12 [03_16],50 µM,46%,35 µM,83%,–,–
Nc1c(C(=O)Nc2cc(F)ccc2F)sc2nc(-c3cccs3)ccc12 [03_18],35 µM,–,14 µM,–,41% 35,71% 14
Nc1c(C(=O)Nc2ccc(Cl)cc2F)sc2nc(-c3ccc(F)cc3)ccc12 [03_19],–,32%,–,61%,–,–
Nc1c(C(=O)Nc2c(Cl)cccc2Cl)sc2nc(-c3cccnc3)ccc12 [03_20],> 200 µM,24%,> 200 µM,11%,–,–
NC(=O)c1sc2nc(-c3ccc(F)cc3)cc(-c3ccccc3)c2c1N [03_21],–,22%,–,58%,–,–
Nc1c(C(=O)Nc2ccc(F)c(Cl)c2)sc2nc(-c3ccncc3)ccc12 [03_22],100 µM,21%,39 µM,83%,–,–

Structure (SMILES),IC50 [1],inhibition at 100 µM [1],IC50 [2],inhibition at 50 µM [2],INHIBITION (%) E. coli [1],INHIBITION (%) B. anthracis [2]
Nc1c(C(=O)Nc2ccc(F)c(F)c2)sc2nc(-c3ccc(F)cc3)ccc12 [03_24],> 200 µM,9%,> 200 µM,5%,–,–
Nc1c(C(=O)Nc2ccc(F)cc2)sc2nc(-c3ccc(F)cc3)ccc12 [03_25],–,8%,–,1%,–,–
Nc1c(C(=O)Nc2ccc(F)c(F)c2)sc2nc(-c3ccncc3)ccc12 [03_26],–,7%,–,23%,–,–
Nc1c(C(=O)Nc2ccc(F)cc2F)sc2nc(-c3ccncc3)ccc12 [03_27],–,0%,–,20%,–,–
Nc1c(C(=O)Nc2cc(Cl)cc(Cl)c2)sc2nc(-c3ccncc3)ccc12 [03_28],–,0%,–,0%,–,–
Nc1c(C(=O)Nc2ccc(Cl)cc2)sc2nc(-c3ccncc3)ccc12 [03_29],–,0%,–,0%,–,–
Cc1ccc(N/C=C2\C(=O)Nc3ccccc32)cc1Cl [15_01],> 200 µM,24%,> 200 µM,37%,–,–
Cc1ccc(N/C=C2\C(=O)Nc3ccccc32)c(C)c1 [15_02],–,20%,–,29%,–,–
CN(C)c1ccc(N/C=C2\C(=O)Nc3ccccc32)cc1 [15_03],–,19%,–,27%,–,–
Cc1ccc(C)c(N/C=C2\C(=O)Nc3ccccc32)c1 [15_04],–,18%,–,26%,–,–
O=C1Nc2ccccc2/C1=C/NCc1cccnc1 [15_05],–,17%,–,23%,–,–
O=C1Nc2ccccc2/C1=C/Nc1ccc(F)cc1 [15_06],–,15%,–,49%,–,–
O=C1Nc2ccccc2/C1=C/Nc1cccc(Cl)c1 [15_07],–,15%,–,45%,–,–
COC(=O)c1ccccc1N/C=C1\C(=O)Nc2ccccc21 [15_08],–,14%,–,0%,–,–
O=C1Nc2ccccc2/C1=C/Nc1ccc(Br)cc1 [15_09],> 200 µM,13%,111 µM,60%,–,–
Cc1cccc(N/C=C2\C(=O)Nc3ccccc32)c1C [15_10],–,13%,–,26%,–,–
CSc1ccc(N/C=C2\C(=O)Nc3ccccc32)cc1 [15_12],–,12%,–,25%,–,–
